Source: patent publication US7435837B2, “Dihydrobenzofuranyl alkanamine derivatives and methods for using same” (Wyeth, priority 2003, dated 2008)
Counter-ions that a name gives are not always drawn.

Row | SMILES | melting point
1 | NCC1Cc2cccc(-c3ccsc3)c2O1 (single isomer, unassigned; (-)) (as salt: hydrobromid) [Example 46, (−)-1-(7-thien-3-yl-2,3-dihydro-1-benzofuran-2-yl)methanamine] | 234 to 235 °C
2 | NCC1Cc2cccc(-c3ccc(Cl)cc3Cl)c2O1 (single isomer, unassigned; (-)) (as salt: hydrochloride) [Example 149, (−)-1-[7-(2,4-dichlorophenyl)-2,3-dihydro-1-benzofuran-2-yl]methanamine] | 203 to 206 °C
3 | CNCC1Cc2cc(Cl)cc(-c3ccsc3)c2O1 (single isomer, unassigned; (+)) (as salt: hydrochloride) [Example 93, (+)-N-[(5-chloro-7-thien-3-yl-2,3-dihydro-1-benzofuran-2-yl)methyl]-N-methylamine] | 263 to 266 °C
4 | NCC1Cc2cccc(-c3ccccc3C(F)(F)F)c2O1 (racemic) (as salt: hydrochloride) [Example 53, (±)-1-{7-[2-(trifluoromethyl)phenyl]-2,3-dihydro-1-benzofuran-2-yl}methanamine] | 204 to 205 °C
5 | Cc1ccccc1-c1ccc(F)c2c1OC(CN)C2 (racemic) (as salt: hydrochloride) [Example 99, (±)-1-[4-fluoro-7-(2-methylphenyl)-2,3-dihydro-1-benzofuran-2-yl]methanamine] | 228 to 231 °C
6 | NCC1Cc2cc(F)cc(-c3ccccc3Cl)c2O1 (single isomer, unassigned; (-)) (as salt: hydrochloride) [Example 102, (−)-1-[7-(2-chlorophenyl)-5-fluoro-2,3-dihydro-1-benzofuran-2-yl]methanamine] | 206 to 209 °C
7 | NCC1Cc2cccc(-c3ccccc3)c2O1 (single isomer, unassigned; (-)) (as salt: hydrochloride) [Example 38, (−)-1-(7-phenyl-2,3-dihydro-1-benzofuran-2-yl)methanamine] | 220 to 222 °C
8 | Cc1ccccc1-c1cc(Cl)cc2c1OC(CN)C2 (single isomer, unassigned; (+)) (as salt: hydrobromid) [Example 96, (+)-1-[5-chloro-7-(2-methylphenyl)-2,3-dihydro-1-benzofuran-2-yl]methanamine] | 170 to 172 °C
9 | NCC1Cc2cc(F)cc(-c3ccccc3)c2O1 (racemic) (as salt: hydrochloride) [Example 103, (±)-1-(5-fluoro-7-phenyl-2,3-dihydro-1-benzofuran-2-yl)methanamine] | 255 to 260 °C
10 | NCC1Cc2cc(Cl)cc(-c3ccsc3)c2O1 (racemic) (as salt: hydrochloride) [Example 90, (±)-(5-chloro-7-thien-3-yl-2,3-dihydro-1-benzofuran-2-yl)methylamine] | 230 °C (dec.)
11 | Cc1ccc(-c2cccc3c2CC(CN)O3)cc1 (racemic) (as salt: hydrochloride) [Example 121, (±)-1-[4-(4-methylphenyl)-2,3-dihydro-1-benzofuran-2-yl]methanamine] | 239 to 241 °C
12 | NCC1Cc2cccc(-c3ccc(F)cc3F)c2O1 (racemic) (as salt: hydrochloride) [Example 146, (±)-1-[7-(2,4-difluorophenyl)-2,3-dihydro-1-benzofuran-2-yl]methanamine] | 222 to 224 °C
13 | Cc1ccccc1-c1cc(F)cc2c1OC(CN)C2 (racemic) (as salt: hydrochloride) [Example 104, (±)-1-[5-fluoro-7-(2-methylphenyl)-2,3-dihydro-1-benzofuran-2-yl]methanamine] | 229 to 234 °C
14 | Cc1cccc(C)c1-c1cccc2c1OC(CN)C2 (single isomer, unassigned; (-)) (as salt: hydrochloride) [Example 57, (−)-1-[7-(2,6-dimethylphenyl)-2,3-dihydro-1-benzofuran-2-yl]methanamine] | 244 to 247 °C
15 | NCC1Cc2cccc(-c3ccc(C(F)(F)F)cc3)c2O1 (single isomer, unassigned; (+)) (as salt: hydrochloride) [Example 137, (+)-1-{7-[4-(trifluoromethyl)phenyl]-2,3-dihydro-1-benzofuran-2-yl}methanamine] | 226 to 229 °C
16 | COc1ccc(-c2cccc3c2OC(CN)C3)cc1 (single isomer, unassigned; (-)) (as salt: hydrobromid) [Example 81, (−)-1-[7-(4-methoxyphenyl)-2,3-dihydro-1-benzofuran-2-yl]methanamine] | 185 to 188 °C
17 | CC1(CN)Cc2cc(Cl)cc(-c3ccccc3)c2O1 (racemic) (as salt: hydrochloride) [Example 112, (±)-1-(5-chloro-2-methyl-7-phenyl-2,3-dihydro-1-benzofuran-2-yl)methanamine] | 222 to 225 °C
18 | CC(C)(C)CCc1cccc2c1OC(CN)C2 (racemic) (as salt: hydrochloride) [Example 118, (±)-1-[7-(3,3-dimethylbutyl)-2,3-dihydro-1-benzofuran-2-yl]methanamine] | 158 to 160 °C
19 | CC(C)(C)c1cccc2c1OC(CN)C2 (single isomer, unassigned; (-)) (as salt: hydrochloride) [Example 25, (−)-1-(7-tert-butyl-2,3-dihydro-1-benzofuran-2-yl)methanamine] | 178 to 180 °C
20 | CC1(CN)Cc2cc(Cl)cc(-c3cccs3)c2O1 (racemic) (as salt: hydrochloride) [Example 114, (±)-(5-chloro-2-methyl-7-thien-2-yl-2,3-dihydro-1-benzofuran-2-yl)methylamine] | 251 to 252 °C
